Assay in all cases: cAMP accumulation
Common to all, as to type: cell-based
Holding throughout (details): cAMP maximal response, mean ± S.E.M., SEM
In general terms: Changes in cAMP serve as a functional read-out for many G protein-coupled receptors.

One assay addresses T1, hCTR I371A (Homo sapiens, UniProt P30988, I371A).
T1 construct: c-Myc (N); expressed in transfected cells
T1 sequence (P30988 25-474 I371A): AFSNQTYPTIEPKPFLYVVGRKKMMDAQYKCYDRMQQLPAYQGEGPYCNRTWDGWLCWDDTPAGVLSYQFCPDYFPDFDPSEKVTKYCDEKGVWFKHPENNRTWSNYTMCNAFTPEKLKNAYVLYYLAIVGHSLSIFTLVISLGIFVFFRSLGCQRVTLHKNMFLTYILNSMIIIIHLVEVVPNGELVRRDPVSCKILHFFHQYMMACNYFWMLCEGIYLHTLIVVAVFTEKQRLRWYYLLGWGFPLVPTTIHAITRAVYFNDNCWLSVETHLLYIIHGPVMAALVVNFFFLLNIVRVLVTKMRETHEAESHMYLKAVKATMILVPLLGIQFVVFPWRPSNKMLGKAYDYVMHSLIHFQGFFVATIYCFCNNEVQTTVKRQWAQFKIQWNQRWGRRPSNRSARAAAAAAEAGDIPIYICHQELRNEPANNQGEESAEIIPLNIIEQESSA
As for the experimental part: (§1) Cells (2.5 × 10^4 cells/well) were seeded into 96-well plates and incubated overnight. Cells were stimulated with increasing concentrations of ligands for 30 min in the presence of IBMX. The liquid was discarded, changed to absolute ethanol and volatilized to dryness at room temperature. […] Data were normalized to the response of 100 μM forskolin.
(§2) Data were corrected for radioligand occupancy using the Cheng-Prusoff equation in Prism; as such data are reported as pKi. Emax and EC50 were estimated from concentration-response curves using with a 3-parameter logistic equation in Prism (v7). These values are a composite of functional affinity, efficacy and stimulus response coupling. […] Significance was accepted at P < 0.05.

The target of a further assay is T2, hCTR V358A (Homo sapiens, UniProt P30988, V358A).
T2 construct: c-Myc (N); expressed in transfected cells
T2 sequence (P30988 25-474 V358A): T1 sequence (P30988 25-474 I371A) with V334A, A347I
As for the experimental part: as §1, §2

The target of another assay is T3, hCTR W290A (Homo sapiens, UniProt P30988, W290A).
T3 construct: c-Myc (N); expressed in transfected cells
T3 sequence (P30988 25-474 W290A): T1 sequence (P30988 25-474 I371A) with W266A, A347I
The method, then:
as §1, §2

In another assay the target is T4, hCTR Y299A (Homo sapiens, UniProt P30988, Y299A).
T4 construct: c-Myc (N); expressed in transfected cells
T4 sequence (P30988 25-474 Y299A): T1 sequence (P30988 25-474 I371A) with Y275A, A347I
The method, then:
as §1, §2

Another assay concerns the target T5, hCTR Y372A (Homo sapiens, UniProt P30988, Y372A).
T5 construct: c-Myc (N); expressed in transfected cells
T5 sequence (P30988 25-474 Y372A): T1 sequence (P30988 25-474 I371A) with A347I, Y348A
As for the experimental part:
as §1, §2

This passage reports Emax results from PMC5908784, “Extracellular loops 2 and 3 of the calcitonin receptor selectively modify agonist binding and efficacy” (Biochemical Pharmacology, 2018).

Changes are numbered by the printed parent chain.

Broadly, the Emax is the size of the effect at its maximum, as opposed to the concentration needed. Take `CC(C)C[C@H](NC(=O)[C@H](CCCCN)NC(=O)CNC(=O)[C@H](CC(C)C)NC(=O)[C@@H](NC(=O)[C@@H]1CSSC[C@H](N)C(=O)N[C@@H](CO)C(=O)N[C@@H](CC(N)=O)C(=O)N[C@@H](CC(C)C)C(=O)N[C@@H](CO)C(=O)N[C@@H]([C@@H](C)O)C(=O)N1)C(C)C)C(=O)N[C@@H](CO)C(=O)N[C@@H](CCC(N)=O)C(=O)N[C@@H](CCC(=O)O)C(=O)N[C@@H](CC(C)C)C(=O)N[C@@H](Cc1c[nH]cn1)C(=O)N[C@@H](CCCCN)C(=O)N[C@@H](CC(C)C)C(=O)N[C@@H](CCC(N)=O)C(=O)N[C@H](C(=O)N[C@@H](Cc1ccc(O)cc1)C(=O)N1CCC[C@H]1C(=O)N[C@@H](CCCNC(=N)N)C(=O)N[C@H](C(=O)N[C@@H](CC(N)=O)C(=O)N[C@H](C(=O)NCC(=O)N[C@@H](CO)C(=O)NCC(=O)N[C@H](C(=O)N1CCC[C@H]1C(N)=O)[C@@H](C)O)[C@@H](C)O)[C@@H](C)O)[C@@H](C)O` [sCT]: the maximum response (Emax) is 28 ± 2% at hCTR I371A; 139 ± 9% at hCTR V358A; 154 ± 7% at hCTR W290A; 110 ± 7% on hCTR Y299A; 113 ± 10% at hCTR Y372A.
